Data from ChEMBL document CHEMBL4393743, “Anti-tumor activity evaluation of novel tubulin and HDAC dual-targeting inhibitors” (Bioorg Med Chem Lett, 2019).

Experiments:
[1] = target: Tubulin; test: Inhibition of tubulin polymerization (unknown origin) by spectrophotometric method; format: protein-complex assay, Homo sapiens
[2] = target: T1, Histone deacetylase 8 (Homo sapiens, UniProt Q9BY41); test: Inhibition of HDAC8 (unknown origin) using Boc-Lys(Ac)-AMC as substrate incubated for 60 mins by fluorescence assay
T1 sequence (Q9BY41 whole entry): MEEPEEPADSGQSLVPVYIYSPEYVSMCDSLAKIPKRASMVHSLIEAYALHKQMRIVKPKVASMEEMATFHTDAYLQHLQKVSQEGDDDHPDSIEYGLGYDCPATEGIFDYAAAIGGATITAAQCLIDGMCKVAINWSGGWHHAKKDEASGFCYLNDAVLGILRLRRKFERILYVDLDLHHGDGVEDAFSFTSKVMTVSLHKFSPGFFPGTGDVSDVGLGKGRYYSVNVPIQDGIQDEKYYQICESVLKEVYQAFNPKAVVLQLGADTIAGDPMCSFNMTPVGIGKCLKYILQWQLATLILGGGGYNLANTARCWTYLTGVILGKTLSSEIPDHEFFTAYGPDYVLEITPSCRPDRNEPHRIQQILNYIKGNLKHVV

[3] = tested on: NCI-H226; test: Antiproliferative activity against human NCI-H226 cells assessed as cell growth inhibition incubated for 72 hrs by MTT assay; format: functional, cell-based; conditions: NCI-H226, 72 h
[4] = target: T2, Protein deacetylase HDAC6 (Homo sapiens, UniProt Q9UBN7); test: Inhibition of HDAC6 (unknown origin) using Boc-Lys(Ac)-AMC as substrate incubated for 60 mins by fluorescence assay
T2 sequence (Q9UBN7 whole entry): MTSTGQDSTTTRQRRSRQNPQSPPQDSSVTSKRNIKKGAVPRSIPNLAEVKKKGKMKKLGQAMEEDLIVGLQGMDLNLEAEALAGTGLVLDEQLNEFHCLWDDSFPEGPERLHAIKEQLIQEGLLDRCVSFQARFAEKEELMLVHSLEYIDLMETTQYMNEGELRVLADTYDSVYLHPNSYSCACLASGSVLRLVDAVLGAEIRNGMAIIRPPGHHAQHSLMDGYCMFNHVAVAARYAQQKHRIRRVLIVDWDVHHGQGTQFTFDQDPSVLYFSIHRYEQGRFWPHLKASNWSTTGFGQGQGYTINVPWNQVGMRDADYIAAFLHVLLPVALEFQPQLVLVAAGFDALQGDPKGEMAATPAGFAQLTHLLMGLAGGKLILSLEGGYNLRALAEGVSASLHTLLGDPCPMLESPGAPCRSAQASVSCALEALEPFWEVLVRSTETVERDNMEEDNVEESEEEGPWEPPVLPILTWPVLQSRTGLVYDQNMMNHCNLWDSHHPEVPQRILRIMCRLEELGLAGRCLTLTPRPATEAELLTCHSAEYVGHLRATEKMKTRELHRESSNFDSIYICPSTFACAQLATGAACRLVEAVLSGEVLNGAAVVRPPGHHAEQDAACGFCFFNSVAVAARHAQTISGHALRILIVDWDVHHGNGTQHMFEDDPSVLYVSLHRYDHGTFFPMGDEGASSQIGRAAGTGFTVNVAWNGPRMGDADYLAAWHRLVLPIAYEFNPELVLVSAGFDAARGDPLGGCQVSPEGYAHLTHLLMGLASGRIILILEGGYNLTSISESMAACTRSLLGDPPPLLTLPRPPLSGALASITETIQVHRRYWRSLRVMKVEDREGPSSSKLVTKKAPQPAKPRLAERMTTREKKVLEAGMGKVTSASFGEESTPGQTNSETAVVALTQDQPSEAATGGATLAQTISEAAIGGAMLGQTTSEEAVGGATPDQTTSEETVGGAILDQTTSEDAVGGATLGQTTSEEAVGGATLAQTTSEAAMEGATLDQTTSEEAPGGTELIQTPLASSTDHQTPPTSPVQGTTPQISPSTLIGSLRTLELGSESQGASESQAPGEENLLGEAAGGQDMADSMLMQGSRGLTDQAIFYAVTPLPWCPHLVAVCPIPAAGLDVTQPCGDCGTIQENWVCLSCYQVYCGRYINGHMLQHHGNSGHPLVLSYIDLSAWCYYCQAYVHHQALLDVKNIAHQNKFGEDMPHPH

[5] = tested on: HeLa; test: Antiproliferative activity against human HeLa cells assessed as cell growth inhibition incubated for 72 hrs by MTT assay; format: functional, cell-based
[6] = tested on: HCT-116; test: Antiproliferative activity against human HCT116 cells assessed as cell growth inhibition incubated for 72 hrs by MTT assay; format: functional, cell-based; conditions: HCT-116, 72 h
[7] = tested on: NCI-H460; test: Antiproliferative activity against human NCI-H460 cells assessed as cell growth inhibition incubated for 72 hrs by MTT assay; format: functional, cell-based; conditions: NCI-H460, 72 h
[8] = tested on: MCF7; test: Antiproliferative activity against human MCF7 cells assessed as cell growth inhibition incubated for 72 hrs by MTT assay; format: functional, cell-based; conditions: MCF7, 72 h
[9] = tested on: MDA-MB-231; test: Antiproliferative activity against human MDA-MB-231 cells assessed as cell growth inhibition incubated for 72 hrs by MTT assay; format: functional, cell-based; conditions: MDA-MB-231, 72 h
[10] = tested on: A549; test: Induction of apoptosis in human A549 cells assessed as live cells at 0.3 uM incubated for 72 hrs by Annexin V-FITC/propidium iodide-staining based flow cytometric analysis (reference value: 89.8%); format: functional
[11] = tested on: A549; test: Induction of apoptosis in human A549 cells assessed as live cells at 1 uM incubated for 72 hrs by Annexin V-FITC/propidium iodide-staining based flow cytometric analysis (reference value: 89.8%); format: functional
[12] = tested on: A549; test: Induction of apoptosis in human A549 cells assessed as early apoptotic cells at 1 uM incubated for 72 hrs by Annexin V-FITC/propidium iodide-staining based flow cytometric analysis (reference value: 1.8%); format: functional
[13] = tested on: A549; test: Induction of apoptosis in human A549 cells assessed as necrotic cells at 1 uM incubated for 72 hrs by Annexin V-FITC/propidium iodide-staining based flow cytometric analysis (reference value: 2.76%); format: functional
[14] = tested on: A549; test: Induction of apoptosis in human A549 cells assessed as live cells at 10 uM incubated for 72 hrs by Annexin V-FITC/propidium iodide-staining based flow cytometric analysis (reference value: 89.8%); format: functional
[15] = tested on: A549; test: Induction of apoptosis in human A549 cells assessed as early apoptotic cells at 10 uM incubated for 72 hrs by Annexin V-FITC/propidium iodide-staining based flow cytometric analysis (reference value: 1.8%); format: functional
[16] = tested on: A549; test: Induction of cell cycle arrest in human A549 cells assessed as accumulation at G0/G1 phase at 0.1 uM incubated for 36 hrs by propidium iodide staining based flow cytometry (reference value: 72.51%); format: functional
[17] = tested on: A549; test: Induction of cell cycle arrest in human A549 cells assessed as accumulation at S phase at 0.1 uM incubated for 36 hrs by propidium iodide staining based flow cytometry (reference value: 16.66%); format: functional
[18] = tested on: A549; test: Induction of cell cycle arrest in human A549 cells assessed as accumulation at G2/M phase at 0.3 uM incubated for 36 hrs by propidium iodide staining based flow cytometry (reference value: 10.83%); format: functional
[19] = tested on: A549; test: Induction of cell cycle arrest in human A549 cells assessed as accumulation at G2/M phase at 1 uM incubated for 36 hrs by propidium iodide staining based flow cytometry (reference value: 10.83%); format: functional

COc1ccc(/C=C(\C)C(=O)c2cc(OC)c(OC)c(OC)c2)cc1OCCCC(=O)NO
IC50 [1]: 54.5 µM | IC50 [2]: 1.7 µM | IC50 [3]: 7.54 µM | IC50 [4]: 0.47 µM | IC50 [5]: 0.89 µM | IC50 [6]: 7.46 µM | IC50 [7]: 2.95 µM | IC50 [8]: 7.33 µM | IC50 [9]: 6.95 µM | Activity [10]: 79.9% | Activity [11]: 58.9% | Activity [12]: 6.6% | Activity [13]: 8.05% | Activity [14]: 54.7% | Activity [15]: 8.81% | Activity [16]: 68.44% | Activity [17]: 22.09% | Activity [18]: 13.81% | Activity [19]: 62.89%
